We go through two molecules from patent US8148339B2, “Method of reducing cardiac levels of doxorubicin when given as orotate salt” (Savvipharm Inc, priority 2006, dated 2012).

Molecules are shown by their SMILES. Structures can show the parent of a compound that is named as a salt.

For data set [1], the system named is CAKI-1 human renal tumor xenografts. As to conditions: i.v., equivalent dosages.
Procedure: The 0.8 mg/mL solution was diluted with saline to 0.53 and 0.35 mg/mL.
The 0.975 mg/mL solution was further diluted with saline to 0.65 and 0.43 mg/mL.
Both compounds and vehicle were administered to mice by animal's body weight on each day of treatment with the injection volume being 0.1 mL/10 g of body weight.
Tumors were measured and volume determined using formula L×W^2/2=mm^3; and weight calculated assuming 1 mm^3=1 mg. The study was terminated 95 days after tumor implantation.
For data set [2] the following is noted: in vivo; cited from earlier work.
A further data set is described as follows: in vivo. As to conditions: male, athymic NCr-nu/nu, mouse, iv, 8 mg/kg.
For data set [3] the following is noted: cumulative dose; cited from earlier work.

As for `COc1cccc2c1C(=O)c1c(O)c3c(c(O)c1C2=O)C[C@@](O)(C(=O)CO)C[C@@H]3O[C@H]1C[C@H](N)[C@H](O)[C@H](C)O1.O=C(O)c1cc(=O)[nH]c(=O)[nH]1` [DOX orotate, doxorubicin orotate], the “difference in tumor growth, DOX orotate compared with DOX” value in data set [1] is “no significant difference”.
Turning to `COc1cccc2c1C(=O)c1c(O)c3c(c(O)c1C2=O)C[C@@](O)(C(=O)CO)C[C@@H]3O[C@H]1C[C@H](N)[C@H](O)[C@H](C)O1` [DOX, (85, 105)-10-[(3-amino-2,3,6-trideoxy-(c-L-lyxo-hexopyranosyl)oxy]-8-glycolyl 1-7,8,9,10-tetrahydro-6,8,11-trihydroxy-1-methoxy-5,12-naphthacenedione hydrochloride], the AUC – broadly, the area under the concentration-time curve, a measure of exposure – in data set [2] was 9900 µg·h/mL. The molecule further came in with a concentration at 1 day after the last injection (day 26) in the data set “in vivo” of 7400 ng/g. For the same molecule, the “total dosage at which irreversible myocardial toxicity leading to congestive heart failure may be encountered” value in data set [3] was around 550 mg/m^2.
